Assay results from patent publication US11000033B2, “Ketone or oxime compound, and herbicide” (NISSAN CHEMICAL CORPORATION, priority 2014, dated 2021).

How the values were obtained:
Type in all cases: in vivo
[1] = test system: Echinochloa crus-galli var. crus-galli; assay: Test Example 4: herbicidal effect by soil treatment (symbol H)
Method in brief: (§1)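 Seeds were sown in sterilized diluvial soil, covered with about 1.5 cm of soil, and the soil surface was sprayed with a water-diluted emulsion of the compound at a predetermined rate. Plants grew in a greenhouse at 25° C. to 30° C.; effects were scored visually 3 weeks after application.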

wheat [2] = assay: Test Example 5: effect on crop by foliage application, plastic box (symbol e); settings: 320 g/ha, 3 weeks after application
Method in brief: (§2)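 Box culture: sterile diluvial soil, seeds spot-sown, ~1.5 cm cover, raised under glass at 25–30° C.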

soybean = assay: Test Example 5: effect on crop by foliage application, plastic box (symbol d); settings: 320 g/ha, 3 weeks after application
Method in brief: as §2

Stellaria media = assay: Test Example 4: herbicidal effect by soil treatment (symbol P)
Method in brief: as §1

Lolium multiflorum Lam. = assay: Test Example 4: herbicidal effect by soil treatment (symbol K)
Method in brief: as §1

Apera spica-venti = assay: Test Example 5: herbicidal effect by foliage application, plastic box (symbol L); settings: 320 g/ha, 3 weeks after application
Method in brief: (§3)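 After sowing into sterilized diluvial soil and growing two weeks under glass at 25° C. to 30° C., seedlings receive a uniform foliar spray of diluted emulsion. Damage is judged visually three weeks on.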

rapeseed = assay: Test Example 5: effect on crop by foliage application, plastic box (symbol g); settings: 320 g/ha, 3 weeks after application
Method in brief: as §2

corn [3] = assay: Test Example 5: effect on crop by foliage application, plastic box (symbol c); settings: 320 g/ha, 3 weeks after application
Method in brief: as §2

[4] = test system: Echinochloa crus-galli var. crus-galli; assay: Test Example 3: herbicidal effect by foliage application, Wagner pot (symbol H); settings: application herbicide amount 320 g/ha
Method in brief: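 Post-emergence, paddy-type test: seedlings 14 d old in shallow-flooded (0.1–0.5 cm) alluvial soil, 25–30 °C greenhouse. Emulsion diluted to target rate, sprayed on leaves. Read-out: visual effect on each species at 3 weeks, per set criteria.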

corn [5] = assay: Test Example 4: effect on crop by soil treatment (symbol c)
Method in brief: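 Steps: fill box with sterilized diluvial soil; sow seed spot-like; cover with ~1.5 cm soil; grow in greenhouse (25° C. to 30° C.).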

Digitaria ciliaris = assay: Test Example 5: herbicidal effect by foliage application, plastic box (symbol F); settings: 320 g/ha, 3 weeks after application
Method in brief: as §3

Setaria viridis = assay: Test Example 4: herbicidal effect by soil treatment (symbol G)
Method in brief: as §1

Scirpus juncoides = assay: Test Example 1: herbicidal activity, application before weed generation in submerged conditions (symbol B); settings: application herbicide amount 320 g/ha
Method in brief: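 Weeds are sown into submerged alluvial soil alongside transplanted 2.5-leaf rice, and the compound, as an emulsion diluted to a set rate, is applied onto the water before emergence. Rating on the 0–5 herbicidal-ratio scale follows 3 weeks of greenhouse growth at 25–30 °C.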

rice = assay: Test Example 4: effect on crop by soil treatment (symbol b)
Method in brief: (§4)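 Grown at 25° C. to 30° C. in a greenhouse, the crops came from seed sown spot-wise in sterilized diluvial soil under roughly 1.5 cm of covering soil.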

Veronica persica = assay: Test Example 5: herbicidal effect by foliage application, plastic box (symbol R); settings: 320 g/ha, 3 weeks after application
Method in brief: as §3

Alopecurus myosuroides = assay: Test Example 4: herbicidal effect by soil treatment (symbol J)
Method in brief: as §1

wheat [6] = assay: Test Example 4: effect on crop by soil treatment (symbol e)
Method in brief: as §4

[7] = application herbicide amount 320 g/ha

SMILES | e: wheat, effect on crop grade (wheat [2]) | d: soybean, effect on crop grade (soybean) | L: Apera spica-venti, herbicidal effect grade (Apera spica-venti) | g: rapeseed, effect on crop grade (rapeseed) | c: corn, effect on crop grade (corn [3]) | F: Digitaria ciliaris, herbicidal effect grade (Digitaria ciliaris) | Herbicidal effect grade, B: Scirpus juncoides (Scirpus juncoides) | R: Veronica persica, herbicidal effect grade (Veronica persica) | H (Echinochloa crus-galli var. crus-galli) herbicidal effect grade [1, 7] | P (Stellaria media) herbicidal effect grade (Stellaria media; [7]) | K (Lolium multiflorum Lam.) herbicidal effect grade (Lolium multiflorum Lam.; [7]) | herbicidal effect on H (Echinochloa crus-galli var. crus-galli), grade 0-5 [4] | c (corn) effect on crop grade (corn [5]; [7]) | G (Setaria viridis) herbicidal effect grade (Setaria viridis; [7]) | b (directly sowed rice plant) effect on crop grade (rice; [7]) | J (Alopecurus myosuroides) herbicidal effect grade (Alopecurus myosuroides; [7]) | e (wheat) effect on crop grade (wheat [6]; [7]) | further results
CON=C(CC1CC(O)=C(c2c(C)cc(C#C[Si](C)(C)C)cc2C)C1=O)C(C)C (centres unmarked) [9-005] | 0 (Herbicidal ratio of 5% or lower (almost no effect)) | 0 (Herbicidal ratio of 5% or lower (almost no effect)) | 5 (Herbicidal ratio of 90% or more (almost completely withered)) | 3 (Herbicidal ratio of 40% or higher and lower than 70%) | 3 (Herbicidal ratio of 40% or higher and lower than 70%) | 4 (Herbicidal ratio of 70% or higher and lower than 90%) | 0 (Herbicidal ratio of 5% or lower (almost no effect)) | 0 (Herbicidal ratio of 5% or lower (almost no effect)) | – | – | – | – | – | – | – | – | – | Herbicidal effect grade, H: Echinochloa crus-galli var. crus-galli [1, 7]: 0 (Herbicidal ratio of 5% or lower (almost no effect)); Herbicidal effect grade, P: Stellaria media (Stellaria media; [7]): 0 (Herbicidal ratio of 5% or lower (almost no effect)); Herbicidal effect grade, K: Lolium multiflorum Lam. (Lolium multiflorum Lam.; [7]): 4 (Herbicidal ratio of 70% or higher and lower than 90%); H (Echinochloa crus-galli var. crus-galli) herbicidal effect grade ([4]; Table 24): 5 (Herbicidal ratio of 90% or more (almost completely withered)); Effect on crop grade, c: corn (corn [5]; [7]): 0 (Herbicidal ratio of 5% or lower (almost no effect)); Herbicidal effect grade, G: Setaria viridis (Setaria viridis; [7]): 0 (Herbicidal ratio of 5% or lower (almost no effect)); Effect on crop grade, b: directly sowed rice plant (rice; [7]): 1 (Herbicidal ratio of 5% or higher and lower than 20%); Herbicidal effect grade, J: Alopecurus myosuroides (Alopecurus myosuroides; [7]): 1 (Herbicidal ratio of 5% or higher and lower than 20%); Effect on crop grade, e: wheat (wheat [6]; [7]): 0 (Herbicidal ratio of 5% or lower (almost no effect))
CC(CC1CC(O)=C(c2c(C)cc(C)cc2C)C1=O)=NOCC(=O)N1CCOCC1 (centres unmarked) [1-025] | 4 (Herbicidal ratio of 70% or higher and lower than 90%) | 3 (Herbicidal ratio of 40% or higher and lower than 70%) | 5 (Herbicidal ratio of 90% or more (almost completely withered)) | 4 (Herbicidal ratio of 70% or higher and lower than 90%) | 3 (Herbicidal ratio of 40% or higher and lower than 70%) | 5 (Herbicidal ratio of 90% or more (almost completely withered)) | 2 (Herbicidal ratio of 20% or higher and lower than 40%) | 3 (Herbicidal ratio of 40% or higher and lower than 70%) | 5 (Herbicidal ratio of 90% or more (almost completely withered)) | 0 (Herbicidal ratio of 5% or lower (almost no effect)) | 5 (Herbicidal ratio of 90% or more (almost completely withered)) | 5 (Herbicidal ratio of 90% or more (almost completely withered)) | 0 (Herbicidal ratio of 5% or lower (almost no effect)) | 5 (Herbicidal ratio of 90% or more (almost completely withered)) | 5 (Herbicidal ratio of 90% or more (almost completely withered)) | 4 (Herbicidal ratio of 70% or higher and lower than 90%) | 0 (Herbicidal ratio of 5% or lower (almost no effect)) | –
CON=C(C)CC1CC(OC(=O)C(C)Oc2ccccc2)=C(c2c(C)cc(C)cc2C)C1=O (centres unmarked) [1-060] | 5 (Herbicidal ratio of 90% or more (almost completely withered)) | 4 (Herbicidal ratio of 70% or higher and lower than 90%) | 5 (Herbicidal ratio of 90% or more (almost completely withered)) | 4 (Herbicidal ratio of 70% or higher and lower than 90%) | 4 (Herbicidal ratio of 70% or higher and lower than 90%) | 5 (Herbicidal ratio of 90% or more (almost completely withered)) | 4 (Herbicidal ratio of 70% or higher and lower than 90%) | 3 (Herbicidal ratio of 40% or higher and lower than 70%) | 5 (Herbicidal ratio of 90% or more (almost completely withered)) | 0 (Herbicidal ratio of 5% or lower (almost no effect)) | 5 (Herbicidal ratio of 90% or more (almost completely withered)) | 5 (Herbicidal ratio of 90% or more (almost completely withered)) | 4 (Herbicidal ratio of 70% or higher and lower than 90%) | 5 (Herbicidal ratio of 90% or more (almost completely withered)) | 5 (Herbicidal ratio of 90% or more (almost completely withered)) | 5 (Herbicidal ratio of 90% or more (almost completely withered)) | 2 (Herbicidal ratio of 20% or higher and lower than 40%) | –
CON=C(C)CC1CC(OC(=O)COc2ccc(Br)cc2)=C(c2c(C)cc(C)cc2C)C1=O (centres unmarked) [1-081] | – | – | – | – | – | – | 5 (Herbicidal ratio of 90% or more (almost completely withered)) | – | – | – | – | 5 (Herbicidal ratio of 90% or more (almost completely withered)) | – | – | – | – | – | H: Echinochloa crus-galli var. crus-galli, herbicidal effect grade ([1]; 320 g/ha): 5 (Herbicidal ratio of 90% or more (almost completely withered)); e: wheat, effect on crop (criteria 0-5) (wheat [2]): 4 (Herbicidal ratio of 70% or higher and lower than 90%); d: soybean, effect on crop (criteria 0-5) (soybean): 5 (Herbicidal ratio of 90% or more (almost completely withered)); P: Stellaria media, herbicidal effect grade (Stellaria media; 320 g/ha): 0 (Herbicidal ratio of 5% or lower (almost no effect)); K: Lolium multiflorum Lam., herbicidal effect grade (Lolium multiflorum Lam.; 320 g/ha): 5 (Herbicidal ratio of 90% or more (almost completely withered)); L: Apera spica-venti, herbicidal effect (criteria 0-5) (Apera spica-venti): 5 (Herbicidal ratio of 90% or more (almost completely withered)); g: rapeseed, effect on crop (criteria 0-5) (rapeseed): 5 (Herbicidal ratio of 90% or more (almost completely withered)); c: corn, effect on crop (criteria 0-5) (corn [3]): 5 (Herbicidal ratio of 90% or more (almost completely withered)); c: corn, effect grade on crop (corn [5]; 320 g/ha): 4 (Herbicidal ratio of 70% or higher and lower than 90%); F: Digitaria ciliaris, herbicidal effect (criteria 0-5) (Digitaria ciliaris): 5 (Herbicidal ratio of 90% or more (almost completely withered)); G: Setaria viridis, herbicidal effect grade (Setaria viridis; 320 g/ha): 5 (Herbicidal ratio of 90% or more (almost completely withered)); b: directly sowed rice plant, effect grade on crop (rice; 320 g/ha): 5 (Herbicidal ratio of 90% or more (almost completely withered)); R: Veronica persica, herbicidal effect (criteria 0-5) (Veronica persica): 0 (Herbicidal ratio of 5% or lower (almost no effect)); J: Alopecurus myosuroides, herbicidal effect grade (Alopecurus myosuroides; 320 g/ha): 5 (Herbicidal ratio of 90% or more (almost completely withered)); e: wheat, effect grade on crop (wheat [6]; 320 g/ha): 4 (Herbicidal ratio of 70% or higher and lower than 90%)
